Results as given in US20260327215A1, “ISOXAZOLIDINES AS RIPK1 INHIBITORS AND USE THEREOF” (GENZYME CORPORATION, priority 2022, published 2026).

Tests used:
U937 cells = experiment: U937 cell assay: inhibition of TNFa/zVAD-induced cell death (necroptosis), MTS viability; format: cell-based
[1] = target: T1, hRIPK1 (aa 1-375) fusion protein (Homo sapiens, UniProt Q13546); experiment: ADP Glo assay: RIPK1 autophosphorylation (ATP to ADP conversion) inhibition; format: biochemical; details: 50 μM ATP; 30 min preincubation, 240 min incubation at room temperature; 1% DMSO
T1 construct: hRIPK1 (aa 1-375) fusion protein
T1 sequence (Q13546 1-375): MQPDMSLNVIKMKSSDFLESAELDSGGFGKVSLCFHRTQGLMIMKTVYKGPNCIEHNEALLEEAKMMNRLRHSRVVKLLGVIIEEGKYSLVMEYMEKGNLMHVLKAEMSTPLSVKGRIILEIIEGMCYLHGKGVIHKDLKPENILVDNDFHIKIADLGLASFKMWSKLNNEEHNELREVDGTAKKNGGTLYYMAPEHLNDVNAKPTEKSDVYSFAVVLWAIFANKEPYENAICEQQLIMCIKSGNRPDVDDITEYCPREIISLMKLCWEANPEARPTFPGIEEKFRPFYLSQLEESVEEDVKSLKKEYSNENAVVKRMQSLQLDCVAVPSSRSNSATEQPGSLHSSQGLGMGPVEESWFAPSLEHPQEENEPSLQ
Description: Evaluation of Receptor-Interacting Protein Kinase 1 Inhibition.
The catalytic activity of RIPK1 was measured by monitoring the conversion of Adenosine triphosphate (ATP) to Adenosine diphosphate (ADP) due to autophosphorylation using an ADP-Glo kinase kit (Promega, catalog no. V9104).
After another 240 minutes incubation at room temperature, 5 μl Promega ADP-Glo reagent I were added to quench the reaction and deplete unconsumed ATP. After an incubation period of 30 minutes, 10 μl Promega ADP-Glo detection reagent II were added resulting in conversion of ADP to ATP, which generates a light-reaction between luciferase and luciferin. Luminescence was quantified after 30 minutes with a Pherastar FS (BMG LABTECH, Ortenberg).
The adjustment was obtained by nonlinear regression using the Levenberg Marquardt algorithm.

IC50 [1] [nM]	SMILES	IC50 (U937 cells) [nM]
	COc1ncnc(N2CCC(C(=O)N3OCC[C@H]3c3cc(F)cc(C#N)c3)CC2)c1F [Example 5, 3-fluoro-5-[(3S)-2-[1-(5-fluoro-6-methoxy-pyrimidin-4-yl)piperidine-4-carbonyl]isoxazolidin-3-yl]benzonitrile]	8
34	COc1cc(N2CCC(C(=O)N3OCC[C@H]3c3cc(F)cc(C#N)c3)CC2)ncn1 [Example 4, (S)-3-fluoro-5-(2-(1-(6-methoxypyrimidin-4-yl)piperidine-4-carbonyl)isoxazolidin-3-yl)benzonitrile]	80
